Experimental data published in patent US7189732B2, “Pyrido[2,3-d]pyrimidine dichloro-phenyl derivatives” (Hoffman-La Roche Inc., priority 2004, dated 2007).
pIC50: −log10 of the molar value.

Tests used:
Src (p60^c-src) = biological target: T1, Src (p60^c-src) (Homo sapiens, UniProt P12931); assay: SRC-Inhibitor-Assay, time-resolved fluorescence kinase assay (Src); format: biochemical; conditions: ATP 5 μM; peptide 10 μM; enzyme 2.5 U/ml; pre-incubated 15 min at 15° C.
T1 construct: purchased Upstate Biotechnology, Inc., Lake Placid, N.Y. (UBI)
From the text: (§1) The activity of the compounds according to this invention as inhibitors for the src-family tyrosine kinases was shown by using the following assay. As used herein Ro refers to the peptide: NH2-A-E-E-E-I-Y-G-E-F-E-A-K-K-K-K-CONH2(SEQ ID NO: 1); Ja133-Ro refers to the peptide: Ja133-G-Aminocaprylic acid-A-E-E-E-I-Y-G-E-F-E-A-K-K-K-K-CONH2(SEQ ID NO: 2), wherein Ja133 is LightCycler-Red 640-N-hydroxy succinimide ester; PT66 refers to a phosphotyrosine specific antibody which can detect the phoyphorylated tyrosine of protein tyrosine kinase; and TCEP refers to Tris(2-carboxyethyl)phosphine; Lck Cisbio Mab PT66-K refers to Anti-Phosphotyrosine (PT66)-Cryptate; and Src EG&G Wallac PT66 Eu-W1024 refers to Eu^3+-labelled Anti-Phosphotyrosine (PT66)-Cryptate.
(§2) whereby both peptides were synthesized by an optimized solid phase peptide synthesis protocol (Merrifield, Fed. Proc. Fed. Amer. Soc. Exp. Biol. 21(1962) 412) on a Zinsser SMP350 peptide synthesizer. Shortly, the peptide was assembled on 160 mg (22.8 μmol scale) of a Rink-Linker modified polystyrene solid phase by repeatedly conjugating an twenty fold excess of amino acids each protected by temporary piperidine labile Fmoc- and permanent acid labile tert-Bu-, BOC- and tert-BuO-groups depending on the side chain function. The substrate sequence AEEEIYGEFEAKKKK (SEQ ID NO: 1) was N-terminal additionally mounted with the spacer amino acids Aminocaprylic acid and Glycin. After cleavage of the N-terminal temporary protecting group the still attached and protected peptide was labeled with a 1.5 fold amount of LightCycler-Red 640-N-hydroxy succinimide ester (purchased by Roche Diagnostics GmbH) and triethylamine. After 3 hrs. the resin was washed with Dimethylformamide and Isopropanol until the eluates of the blue resin got colorless. […] The substrate was finally isolated by a preparative reverse phase HPLC purification. The purification yielded 12.2 mg RP-HPLC single peak pure blue material (lyophilisate). The identity was proven by Matrix Assisted Laser Desorption Ionization (MALDI) mass spectroscopy [2720.0]. Enzymes: Upstate Lck (p56^lck, active), Upstate Src (p60^c-src, partially purified) were purchased from Upstate Biotechnology, Inc., Lake Placid, N.Y. (UBI). Time-resolved Fluorescence Assay: Reader: Perkin Elmer, Wallac Viktor 1420-040 multilabel counter; Liquid handling system: Beckman Coulter, Biomek 2000. ATP, Tween 20, HEPES were purchased from Roche Molecular Biochemicals, MgCl2 and MnCl2 were purchased from Merck Eurolab, TCEP was purchased from Pierce, 384 Well low volume fluorescence plates was purchased from Falcon. Assay Description:
(§3) At first the enzyme is pre-incubated for 15 min. at 15° C. in aqueous solution with corresponding amounts of inhibitors according to this invention. Then the phosphorylation reaction is started by adding a reaction mixture, containing ATP, Peptide and PT66, and subsequent shaking. The proceeding of this reaction is immediately monitored using time resolved fluorescence spectroscopy in a suitable well plate reader.
(§4) The IC50-values can be obtained from the reaction rates by using a non-linear curve fit (EXCELFIT software, from ID Business Solution Ltd., Guilford, Surrey, UK).

Lck (p56^lck) = biological target: T2, Lck (p56^lck) (Homo sapiens, UniProt P06239); assay: SRC-Inhibitor-Assay, time-resolved fluorescence kinase assay (Lck); format: biochemical; conditions: ATP 5 μM; peptide 10 μM; enzyme 2.5 U/ml; pre-incubated 15 min at 15° C.
T2 construct: purchased Upstate Biotechnology, Inc., Lake Placid, N.Y. (UBI)
From the text: as §1, §2, §3, §4

T2 sequence (P06239 whole entry, species assumed): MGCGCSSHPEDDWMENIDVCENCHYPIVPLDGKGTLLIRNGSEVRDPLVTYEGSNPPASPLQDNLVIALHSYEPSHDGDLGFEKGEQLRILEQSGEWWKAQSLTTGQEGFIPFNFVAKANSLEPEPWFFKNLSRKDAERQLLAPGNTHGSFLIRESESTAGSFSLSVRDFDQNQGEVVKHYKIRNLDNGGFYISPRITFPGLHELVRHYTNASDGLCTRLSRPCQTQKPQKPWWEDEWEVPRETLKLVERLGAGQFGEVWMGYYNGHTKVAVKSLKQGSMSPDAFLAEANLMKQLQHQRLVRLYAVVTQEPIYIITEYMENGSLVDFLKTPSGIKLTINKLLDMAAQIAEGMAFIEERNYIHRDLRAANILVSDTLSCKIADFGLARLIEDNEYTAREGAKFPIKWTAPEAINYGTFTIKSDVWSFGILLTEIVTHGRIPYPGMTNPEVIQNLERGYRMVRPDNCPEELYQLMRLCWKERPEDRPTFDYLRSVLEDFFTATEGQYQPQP
T1 sequence (P12931 whole entry): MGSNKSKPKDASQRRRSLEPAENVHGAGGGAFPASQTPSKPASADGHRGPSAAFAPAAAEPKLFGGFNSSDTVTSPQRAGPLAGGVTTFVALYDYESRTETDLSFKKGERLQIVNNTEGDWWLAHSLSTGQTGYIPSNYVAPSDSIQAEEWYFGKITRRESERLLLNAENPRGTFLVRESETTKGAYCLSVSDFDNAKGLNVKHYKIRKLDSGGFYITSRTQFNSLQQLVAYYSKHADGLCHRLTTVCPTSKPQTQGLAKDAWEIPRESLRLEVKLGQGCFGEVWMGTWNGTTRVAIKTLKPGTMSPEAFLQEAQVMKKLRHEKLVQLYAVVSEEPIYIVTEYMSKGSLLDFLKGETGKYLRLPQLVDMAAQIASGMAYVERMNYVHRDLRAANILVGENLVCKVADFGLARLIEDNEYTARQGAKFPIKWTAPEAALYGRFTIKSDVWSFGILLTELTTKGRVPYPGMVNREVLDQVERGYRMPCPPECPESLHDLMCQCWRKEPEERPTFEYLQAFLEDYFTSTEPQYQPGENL

Structure (SMILES)	pIC50 (Src (p60^c-src))	pIC50 (Lck (p56^lck))
N#Cc1nc2nc(Nc3ccc(N4CCOCC4)cc3)ncc2cc1-c1c(Cl)cccc1Cl [Example 7-2, 6-(2,6-Dichloro-phenyl)-2-(4-morpholin-4-yl-phenylamino)-pyrido[2,3-d]pyrimidine-7-carbonitrile]	8.89	7.93
CCN(CC)CCOc1ccc(Nc2ncc3cc(-c4c(Cl)cccc4Cl)c(C#N)nc3n2)cc1 [Example 7-1, 6-(2,6-Dichloro-phenyl)-2-[4-(2-diethylamino-ethoxy)-phenylamino]-pyrido[2,3-d]pyrimidine-7-carbonitrile]	9.30	8.57
CN1CCN(c2ccc(Nc3ncc4cc(-c5c(Cl)cccc5Cl)c(C(=O)NCCNS(C)(=O)=O)nc4n3)cc2)CC1 [Example 2, 6-(2,6-Dichloro-phenyl)-2-[4-(4-methyl-piperazin-1-yl)-phenylamino]-pyrido[2,3-d]pyrimidine-7-carboxylic acid (2-methanesulfonylamino-ethyl)-amide]	9.52	9.00
O=C(NCCO)c1nc2nc(Nc3ccc(OCCO)cc3)ncc2cc1-c1c(Cl)cccc1Cl [Example 6-1, 6-(2,6-Dichloro-phenyl)-2-[4-(2-hydroxy-ethoxy)-phenylamino]-pyrido[2,3-d]pyrimidine-7-carboxylic acid (2-hydroxy-ethyl)-amide]	8.27	8.09
Cc1ccc(Nc2ncc3cc(-c4c(Cl)cccc4Cl)c(C(=O)NCCNS(C)(=O)=O)nc3n2)cn1 [Example 6-8, 6-(2,6-Dichloro-phenyl)-2-(6-methyl-pyridin-3-ylamino)-pyrido[2,3-d]pyrimidine-7-carboxylic acid (2-methanesulfonylamino-ethyl)-amide]	8.33	8.11
O=C(NC[C@H]1CCCN1)c1nc2nc(Nc3ccc(OCCO)cc3)ncc2cc1-c1c(Cl)cccc1Cl [Example 6-5, 6-(2,6-Dichloro-phenyl)-2-[4-(2-hydroxy-ethoxy)-phenylamino]-pyrido[2,3-d]pyrimidine-7-carboxylic acid ((R)-1-pyrrolidin-2-ylmethyl)-amide]	9.22	8.77
CSc1cccc(Nc2ncc3cc(-c4c(Cl)cccc4Cl)c(C(=O)NCCNS(C)(=O)=O)nc3n2)c1 [Example 6-7, 6-(2,6-Dichloro-phenyl)-2-(3-methylsulfanyl-phenylamino)-pyrido[2,3-d]pyrimidine-7-carboxylic acid (2-methanesulfonylamino-ethyl)-amide]	8.60	8.00
O=C(NC[C@H]1CCCN1)c1nc2nc(Nc3ccc(N4CCOCC4)cc3)ncc2cc1-c1c(Cl)cccc1Cl [Example 1, 6-(2,6-Dichloro-phenyl)-2-(4-morpholin-4-yl-phenylamino)-pyrido[2,3-d]pyrimidine-7-carboxylic acid ((R)-1-pyrrolidin-2-ylmethyl)-amide]	9.40	8.77
CS(=O)(=O)NCCNC(=O)c1nc2nc(Nc3cccc(NS(C)(=O)=O)c3)ncc2cc1-c1c(Cl)cccc1Cl [Example 6-6, 6-(2,6-Dichloro-phenyl)-2-(3-methanesulfonylamino-phenylamino)-pyrido[2,3-d]pyrimidine-7-carboxylic acid (2-methanesulfonylamino-ethyl)-amide]	9.70	8.89
O=C(NCCO)c1nc2nc(Nc3ccc(N4CCOCC4)cc3)ncc2cc1-c1c(Cl)cccc1Cl [Example 6-2, 6-(2,6-Dichloro-phenyl)-2-(4-morpholin-4-yl-phenylamino)-pyrido[2,3-d]pyrimidine-7-carboxylic acid (2-hydroxy-ethyl)-amide]	8.74	8.39
NC(=O)c1nc2nc(Nc3ccc(OCCO)cc3)ncc2cc1-c1c(Cl)cccc1Cl [Example 5, 6-(2,6-Dichloro-phenyl)-2-[4-(2-hydroxy-ethoxy)-phenylamino]-pyrido[2,3-d]pyrimidine-7-carboxylic acid amide]	8.66	8.12
CS(=O)(=O)NCCNC(=O)c1nc2nc(Nc3ccc(OCCO)cc3)ncc2cc1-c1c(Cl)cccc1Cl [Example 6-4, 6-(2,6-Dichloro-phenyl)-2-[4-(2-hydroxy-ethoxy)-phenylamino]-pyrido[2,3-d]pyrimidine-7-carboxylic acid (2-methanesulfonylamino-ethyl)-amide]	8.96	8.80
CS(=O)(=O)NCCNC(=O)c1nc2nc(Nc3ccc(N4CCOCC4)cc3)ncc2cc1-c1c(Cl)cccc1Cl [Example 6-3, 6-(2,6-Dichloro-phenyl)-2-(4-morpholin-4-yl-phenylamino)-pyrido[2,3-d]pyrimidine-7-carboxylic acid (2-methanesulfonylamino-ethyl)-amide]	9.05	8.82
NC(=O)c1nc2nc(Nc3ccc(N4CCOCC4)cc3)ncc2cc1-c1c(Cl)cccc1Cl [Example 8-1, 6-(2,6-Dichloro-phenyl)-2-(4-morpholin-4-yl-phenylamino)-pyrido[2,3-d]pyrimidine-7-carboxylic acid amide]	9.00	8.43
CS(=O)(=O)NCCNC(=O)c1nc2nc(Nc3cccc(SCCO)c3)ncc2cc1-c1c(Cl)cccc1Cl [Example 3, 6-(2,6-Dichloro-phenyl)-2-[3-(2-hydroxy-ethylsulfanyl)-phenylamino]-pyrido[2,3-d]pyrimidine-7-carboxylic acid (2-methanesulfonylamino-ethyl)-amide]	9.15	8.70
N#Cc1nc2nc(Nc3ccc(OCCO)cc3)ncc2cc1-c1c(Cl)cccc1Cl [Example 4, 6-(2,6-Dichloro-phenyl)-2-[4-(2-hydroxy-ethoxy)-phenylamino]-pyrido[2,3-d]pyrimidine-7-carbonitrile]	8.77	8.19
